From patent US8603493B2, “Carbosilane dendrimers, preparation method thereof and use of same” (Dendrico, S.L., priority 2005, dated 2013) come the findings set out here.

SMILES strings stand for the structures. Entries after “also recorded” stand apart in the source; their conditions may differ. A value given as a limit tells only on which side of the number the result lay.

One data set has as its system ODN. The experiment in a line: Complex formation between CBS and ODN (agarose gel electrophoresis). The settings on record: 3% agarose gel, RPMI, excess positive charge (+/−) 2/1 and higher. Type of data set: binding. The source says:
The oligonucleotidic sequences used were antisense sequences (complementary) directed against HIV RNA. The length varied from 15 to 28 bases, being of phosphorothioate nature. The specific ODN used and their sequences are shown below in Table 1.
Several of the ODN were used fluorescent at the 5′ end. This is indicated by adding the letter F to its notation. Thus, “GF” makes reference to the fluorescent anti-gag ODN at end 5′, whilst “RF” makes reference to the anti-Rev ODN fluorescent at end 5′.
Different agarose concentrations were used to show the migration of the ODN and the dendriplexes, bearing in mind the small size of the ODN used. Finally, a 3% agarose concentration in TAE 1× was chosen as the best. The migration of non-fluorescent ODNs was compared with fluorescent ones, both migrating at the same height but the latter increasing the signal perceived considerably. Using them, it thus avoided the isotopic labelling of the ODN. A double well was manufactured to prepare these gels, to permit load volumes of 60 μl, of which 50 μl was mixture volume of the samples in RPMI and 10 μl load buffer with glycerol. As size marker, a ladder of 100 base pairs was used (Gibco BRL®).
For the complex formations in all the tests performed, both on gels and on cells the ratio between the number of positive and negative charges in said complex was taken. As published by different authors in studies with PAMAM dendrimers, it is necessary that the complex formed has an excess positive charge to facilitate its binding to the cell membrane glycoproteins, negatively charged, thus starting the endocytosis process. Likewise, an excess of positive charge is added to ensure the formation of the dendrimer-DNA complex. Therefore, the complexes between the CBS dendrimers and the different nucleic acids were formed in excess number of positive charges (provided by the CBS) compared with negative charges (provided by the ODN). Nevertheless, different charge ratios were tested, making the calculations based in the number of dendrimer charges (fixed) and the number of negative charges of the ODN (also fixed). The 2/1 ratio of positive/negative charges was fixed as sufficient in all dendrimers to form the complexes with a total positive charge, although in some experiments a balance was provided of an equal number of negative charges as positive charges or excess negative charges.
In all the tests, a complex formation volume of 60 μl was used, using phenol red without RPMI serum as support medium.
Tests of complex formation were used with the dendrimers of the invention IM8, ClNH4, NN, Phe and IM16.
The synthesis process of the CBS used in this work begins from an initial nucleus of common structure, which is ended functionalizing in the periphery by the use of different functional groups, which are those which provide the positive charge to the dendrimer and determine the differences between themselves, the dendrimeric nucleus being of apolar nature. Since some of the bonds of the functional groups used to the dendrimeric nucleus could be unstable in aqueous solution, tests were performed to determine if the DNA retention in agarose gels and, therefore, the complex formation between the CBS and the DNA could be due to the total dendrimer structure being conserved or in contrast, the terminal functional groups came away from the moiety of the dendrimeric core which are responsible for the DNA retention. For this, gels were used in which complexes were formed between the ODNs and the integral CBS and those formed supposedly between the ODNs and the terminal functional groups with which the carbosilane skeleton had functionalized, in this case quaternized dimethylethanolamine. As has previously been commented, those positively charged molecules, which are bound to the dendrimer as terminal functional groups, are those which give the dendrimer its charge. As control, the mixtures of ODN-dendrimers, ODN-monomers and ODN alone were compared. […]

Data set [1] deals with PBMC. The experiment in a line: Lymphoproliferative test (tritiated thymidine). Type of data set: cell-based, human. The settings on record: 5 days, average of triplicate. The procedure:
To evaluate the antigenic capacity of CBS dendrimers, a lymphoproliferative test was performed. The experiment was prepared in triplicate in a 96-well flat bottomed plate (100,000 cells per well in 200 μl of complete human AB medium with antibiotics, glutamine and 10% AB serum). […] After 5 days of incubation at 37° C. with 5% atmosphere of CO2 100 μl of supernatant was removed, then adding 100 μL of a medium with an isotopic intercalating agent of DNA, tritiated thymidine (prepared with 10% AB medium and Thymidine 1/100). The plate was then filtered using a Harvester passing its content through a filter, which was left to dry overnight (approx. 16 hours). After this period, a sheet of Methylex® containing scintillation medium was heat-melted, and it was read in a gamma camera to evaluate the number of counts (greater the counts, more proliferation). The results, which are shown below in Table 8, are expressed as tritiated thymidine counts per minute (cpm). Each result of each concentration was performed in triplicate, the value which appears in the table being the average of the 3. The PHA and the control were tested 12 times.

The test system of data set [2] is PBMC. As to the kind of experiment: Staining with Trypan Blue of PBMC treated with dendriplexes or dendrimers. Particulars: 72 hours, (+/−)=2/1, IM8 3.93 μM, IM16 1.99 μM, ClNH4 3.98 μM, Phe 1.96 μM, NN 3.94 μM, SF 0.68 μM, G4 100 μM, PPT 0.88 μM (0.34 μM with SF, 1 μM with G4), n = 100 cells per count.
Another data set has as its system ODN PPT. The experiment in a line: Stability of the dendriplexes at different pHs. The settings on record: dendriplexes with PPT, 2/1 charge ratio; for stability of dendrimer-ODN complex at the pHs tested: pHs 2.8, 2.7, 4.7, 5.7, 6.4, 7.4, 8. Type of data set: physicochemical. The procedure:
Stability studies were carried out on the complexes a different pHs, to determine how the changes in pH would affect the complex, since there are different anatomic, tissue or cell localizations in which the pH acidifies or alkalinifies. Examples are stomach ambient acid, the alkali of the pancreatic secretions of the small intestine, or at a cellular level, the endosome-lisosome behaviour, where it changes from a physiological pH (7.35-7.45) to an acid pH around 4. It is interesting to know, therefore, in what pH range the DNA complex could be maintained with the different CBS used. The complexes were formed following the habitual process and volumes were added in excess of different solutions at different pHs. Therefore, for each one of dendrimers Phe, ClNH4, NN, IM8 and IM16, according to Example 31, 7 solutions were prepared of dendriplexes formed with PPT, in a 2/1 charge ratio and with the following pHs: […]; 2.7; 4.7; 5.7; 6.4; 7.4; 8: The results produced are shown in the electrophoresis gels which appear in FIG. 4, wherein the height of the normal ODN migration band is shown with arrows in the lower part of the gels. The samples were loaded from left to right following an increasing pH order. No sample was formed in the wells indicated with an X.

With `C[N+](C)(C)CCO[Si](C)(CCC[Si](C)(CCC[Si](CCC[Si](C)(CCC[Si](C)(OCC[N+](C)(C)C)OCC[N+](C)(C)C)CCC[Si](C)(OCC[N+](C)(C)C)OCC[N+](C)(C)C)(CCC[Si](C)(CCC[Si](C)(OCC[N+](C)(C)C)OCC[N+](C)(C)C)CCC[Si](C)(OCC[N+](C)(C)C)OCC[N+](C)(C)C)CCC[Si](C)(CCC[Si](C)(OCC[N+](C)(C)C)OCC[N+](C)(C)C)CCC[Si](C)(OCC[N+](C)(C)C)OCC[N+](C)(C)C)CCC[Si](C)(OCC[N+](C)(C)C)OCC[N+](C)(C)C)OCC[N+](C)(C)C.[I-].[I-].[I-].[I-].[I-].[I-].[I-].[I-].[I-].[I-].[I-].[I-].[I-].[I-].[I-].[I-]` [IM16, 2G-[Si(OCH2CH2NMe3^+I^−)2]8], the “complex formation with ODN (retention of DNA migration in gel)” value (“complex formation with ODN” below) in the data set on ODN is listed as “capable of retaining the DNA”. The “Measurement of the scintillation counter (tritiated thymidine counts)” value (“Measurement of the scintillation counter” below) with PBMC [1] (2 μM) was determined as 175 cpm; with PBMC [1] (5 μM), 141 cpm. For the same compound, in the data set on PBMC [2], the “TB+ (%), cells stained with Trypan Blue” value came to 18.5%.
For the compound `C[N+](C)(C)CCO[Si](C)(C)CCC[Si](C)(CCC[Si](CCC[Si](C)(CCC[Si](C)(C)OCC[N+](C)(C)C)CCC[Si](C)(C)OCC[N+](C)(C)C)(CCC[Si](C)(CCC[Si](C)(C)OCC[N+](C)(C)C)CCC[Si](C)(C)OCC[N+](C)(C)C)CCC[Si](C)(CCC[Si](C)(C)OCC[N+](C)(C)C)CCC[Si](C)(C)OCC[N+](C)(C)C)CCC[Si](C)(C)OCC[N+](C)(C)C.[I-].[I-].[I-].[I-].[I-].[I-].[I-].[I-]` [IM8, 2G-[Si(OCH2CH2NMe3^+I^−)]8], in the data set with ODN, the “complex formation with ODN” value is reported as “capable of retaining the DNA; also recorded: capable of retaining the migration of all the ODN”. Besides, in the data set on ODN PPT, the “pH at which the dendrimer-ODN complex is labile / dissociated” value is on record as less than 4.7. The “Measurement of the scintillation counter” value with PBMC [1] (2 μM) was 144 cpm; in the data set on PBMC [1] (5 μM) it was 149 cpm. The “TB+ (%), cells stained with Trypan Blue” value in the data set on PBMC [2] amounted to 17.1%.
With `C[Si](C)(CCCN)CCC[Si](C)(CCC[Si](C)(C)CCCN)CCC[Si](CCC[Si](C)(CCC[Si](C)(C)CCCN)CCC[Si](C)(C)CCCN)(CCC[Si](C)(CCC[Si](C)(C)CCCN)CCC[Si](C)(C)CCCN)CCC[Si](C)(CCC[Si](C)(C)CCCN)CCC[Si](C)(C)CCCN.Cl.Cl.Cl.Cl.Cl.Cl.Cl.Cl` [ClNH4, 2G-[Si(CH2)3NH3^+Cl^−]8], the “complex formation with ODN” value in the data set on ODN is recorded as “capable of retaining the DNA also with all the charge ratios evaluated”. Moreover, in the data set on ODN PPT, the “stability of dendrimer-ODN complex at the pHs tested” value is recorded as “stable at all pHs tested”. The “TB+ (%), cells stained with Trypan Blue” value with PBMC [2] is given as 15.7%.
Turning to `CN(CCO[Si](C)(C)CCC[Si](C)(CCC[Si](CCC[Si](C)(CCC[Si](C)(C)OCCN(C)CC[N+](C)(C)C)CCC[Si](C)(C)OCCN(C)CC[N+](C)(C)C)(CCC[Si](C)(CCC[Si](C)(C)OCCN(C)CC[N+](C)(C)C)CCC[Si](C)(C)OCCN(C)CC[N+](C)(C)C)CCC[Si](C)(CCC[Si](C)(C)OCCN(C)CC[N+](C)(C)C)CCC[Si](C)(C)OCCN(C)CC[N+](C)(C)C)CCC[Si](C)(C)OCCN(C)CC[N+](C)(C)C)CC[N+](C)(C)C.[I-].[I-].[I-].[I-].[I-].[I-].[I-].[I-]` [NN, 2G-[Si(O(CH2)2N(Me)(CH2)2NMe3^+I^−)]8], the “complex formation with ODN” value with ODN is given as “capable of forming complexes with the ODN”. The results for the “Measurement of the scintillation counter” value in the data set on PBMC [1] (2 μM) and in the data set with PBMC [1] (5 μM) were 145 cpm and 160 cpm, respectively. Moreover, the “TB+ (%), cells stained with Trypan Blue” value with PBMC [2] was 10.6%.
For `C[N+](C)(C)CCOc1cc(CO[Si](C)(C)CCC[Si](C)(CCC[Si](CCC[Si](C)(CCC[Si](C)(C)OCc2cc(OCC[N+](C)(C)C)cc(OCC[N+](C)(C)C)c2)CCC[Si](C)(C)OCc2cc(OCC[N+](C)(C)C)cc(OCC[N+](C)(C)C)c2)(CCC[Si](C)(CCC[Si](C)(C)OCc2cc(OCC[N+](C)(C)C)cc(OCC[N+](C)(C)C)c2)CCC[Si](C)(C)OCc2cc(OCC[N+](C)(C)C)cc(OCC[N+](C)(C)C)c2)CCC[Si](C)(CCC[Si](C)(C)OCc2cc(OCC[N+](C)(C)C)cc(OCC[N+](C)(C)C)c2)CCC[Si](C)(C)OCc2cc(OCC[N+](C)(C)C)cc(OCC[N+](C)(C)C)c2)CCC[Si](C)(C)OCc2cc(OCC[N+](C)(C)C)cc(OCC[N+](C)(C)C)c2)cc(OCC[N+](C)(C)C)c1.[I-].[I-].[I-].[I-].[I-].[I-].[I-].[I-].[I-].[I-].[I-].[I-].[I-].[I-].[I-].[I-]` [Phe, 2G-[Si(OCH2—(C6H3)-3,5-(OCH2CH2NMe3^+I^−)2)]8], in the data set on ODN, the “complex formation with ODN” value is “capable of forming complexes with the ODN”. For the same compound, the “stability of dendrimer-ODN complex at the pHs tested” value with ODN PPT is “stable at all pHs tested”. Also, the “Measurement of the scintillation counter” value in the data set on PBMC [1] (2 μM) came to 146 cpm; in the data set with PBMC [1] (5 μM), 170 cpm. Besides, the “TB+ (%), cells stained with Trypan Blue” value in the data set on PBMC [2] is given as 11.3%.
